Data taken from article PMC11539244, “Relative inhibitory activities of newly developed diazabicyclooctanes, boronic acid derivatives, and penicillin-based sulfone β-lactamase inhibitors against broad-spectrum AmpC β-lactamases” (Antimicrobial Agents and Chemotherapy, 2024).
pIC50: −log10 of the molar value. Read-outs that look alike come from different tables or passages of the source.

Assays:
ADC-50 = ADC-50 (Acinetobacter baumannii, UniProt Q6DRA1); assay: IC50 of β-lactamase inhibitors, crude extract, ADC-50; format: biochemical, A. baumannii
CMY-2 = biological target: T1, CMY-2 (Klebsiella pneumoniae, UniProt Q48434); assay: biochemical; parameters: species or system Citrobacter spp.
T1 construct: made in house; host or cells: E. coli TOP10, plasmid pUCp24

MIR-17 = assay: IC50 of β-lactamase inhibitors, crude extract, MIR-17; format: biochemical, Enterobacter roggenkampii; settings: crude extract of E. coli TOP10 recombinant strain, mean of triplicate
Ear-1 = Ear-1 (Klebsiella aerogenes, UniProt A0A0H3FRQ3); assay: IC50 of β-lactamase inhibitors, crude extract, Ear-1; format: biochemical
SRT-1 = SRT-1 (Serratia marcescens, UniProt P18539); assay: IC50 of β-lactamase inhibitors, crude extract, SRT-1; format: biochemical; settings: crude extract of E. coli TOP10 recombinant strain, mean of triplicate
MOX-2 = MOX-2 (Aeromonas caviae, UniProt Q9L3G2); assay: IC50 of β-lactamase inhibitors, crude extract, MOX-2; format: biochemical
FOX-5 = FOX-5 (Aeromonas allosaccharophila, UniProt Q9F4K3); assay: IC50 of β-lactamase inhibitors, crude extract, FOX-5; format: biochemical
ACT-7 = ACT-7 (Enterobacter asburiae, UniProt B6V6L3); assay: biochemical
CMY-42 = biological target: T2, CMY-42 (Klebsiella pneumoniae, UniProt Q48434, V231S); assay: biochemical; parameters: species or system Citrobacter spp.
T2 construct: made in house; host or cells: E. coli TOP10, plasmid pUCp24

ACT-17 = ACT-17 (Enterobacter asburiae, UniProt P05364); format: biochemical; settings: crude extract of E. coli TOP10 recombinant strain, mean of triplicate
YRC-1 = YRC-1 (Yersinia ruckeri, UniProt Q20I87); assay: IC50 of β-lactamase inhibitors, crude extract, YRC-1; format: biochemical
ACC-1 = ACC-1 (Hafnia alvei, UniProt Q9XB24); assay: IC50 of β-lactamase inhibitors, crude extract, ACC-1; format: biochemical
LAT-1 = LAT-1 (Citrobacter portucalensis, UniProt Q48443); assay: biochemical
DHA-1 = DHA-1 (Morganella morganii, UniProt P94958); assay: IC50 of β-lactamase inhibitors, crude extract, DHA-1; format: biochemical
PDC-1 = biological target: T3, PDC-1 (Pseudomonas aeruginosa, UniProt P24735); assay: biochemical; parameters: species or system P. aeruginosa
T3 construct: made in house; host or cells: E. coli TOP10, plasmid pUCp24

PDC-5 = biological target: T4, PDC-5 (Pseudomonas aeruginosa, UniProt P24735, R79Q/T105A); assay: biochemical; parameters: species or system P. aeruginosa
T4 construct: made in house; host or cells: E. coli TOP10, plasmid pUCp24

PDC-382 = PDC-382 (Pseudomonas aeruginosa, UniProt P24735, T96I); assay: biochemical; parameters: species or system P. aeruginosa
E. coli TOP10 = assay: microbe, parasite or virus in culture; format: cell-based; settings: Escherichia coli, TOP10; E. coli TOP 10; β-lactamase inhibitor alone; read-out: MIC values of inhibitor alone
Method: (§1) In order to assess the relative inhibitory activities of those BLI against AmpC β-lactamases, the corresponding blaampC genes without the original promoter sequences were amplified by PCR with specific primers, and corresponding amplicons were cloned into plasmid pUCp24, as described previously ([12], [13]). […] Cultures of E. coli TOP10 harboring recombinant plasmids and therefore producing the different AmpC tested were grown overnight at 37°C in Luria-Bertani agar medium containing amoxicillin (AMX) (50 µg/mL). The activity of the following acquired class C β-lactamases could therefore be evaluated, namely, ACC-1 (originally from Hafnia spp.), FOX-5 (from Aeromonas allosaccharophila), CMY-2 and CMY-42 (from Citrobacter spp.), DHA-1 (from Morganella morganii), ACT-7 and ACT-17 (from Enterobacter asburiae), MIR-17 (from Enterobacter roggenkampii), MOX-2 (from Aeromonas caviae), and LAT-1 (from Citrobacter portucalensis) ([5]). […] Altogether, these enzymes were chosen as representatives of clinically relevant class C β-lactamases being sources of intrinsic or acquired resistance to broad-spectrum β-lactams among most of the commonly identified Gram-negative bacteria in clinical practice.
(§2) MICs were determined in triplicate by broth microdilution (BMD) for CAZ and AMX, as well as their combinations with each β-lactamase inhibitor. CAZ, AMX, and CLA were purchased from Sigma-Aldrich (St. Louis, MO, USA). All others inhibitors (TAZ HY-W009168, AVI HY-14879, REL HY-16752, VAB HY-19930, NAC HY-109008, ZID HY-120859, TAN HY-109124, XER HY-136072, DUR HY-117974, EMT HY-103095) were purchased from MedChem Express (Luzern, Switzerland). The concentration of each β-lactamase inhibitor was chosen as the concentration used in the respective BL/BLI combination under development or commercially available, according to EUCAST or CLSI ([18], [19]). […] BMD assays were performed in cation-adjusted Mueller-Hinton (MH) broth (Bio-Rad, Marnes-la-Coquette, France) for all antibiotics or antibiotic combinations listed above, according to the EUCAST guidelines ([20]).

[1] = system: E. coli ADC-50 (E. coli TOP10 recombinant strain); assay: microbe, parasite or virus in culture; format: cell-based, Escherichia coli; settings: ADC-50 (cAmpC of A. baumannii); susceptibility testing of recombinant E. coli
Method: as §1, §2

[2] = ADC-50, crude extract of E. coli TOP10 recombinant strain, mean of triplicate
[3] = ADC-50, crude extract of E. coli TOP10 recombinant strain, mean of triplicate, read-out: IC50
[4] = Ear-1, crude extract of E. coli TOP10 recombinant strain, mean of triplicate, read-out: IC50
[5] = PDC-1, crude extract of E. coli TOP10 recombinant strain, mean of triplicate, read-out: IC50
[6] = PDC-5, crude extract of E. coli TOP10 recombinant strain, mean of triplicate, read-out: IC50
[7] = MOX-2, crude extract of E. coli TOP10 recombinant strain, mean of triplicate, read-out: IC50
[8] = FOX-5, crude extract of E. coli TOP10 recombinant strain, mean of triplicate, read-out: IC50
[9] = ACT-7, crude extract of E. coli TOP10 recombinant strain, mean of triplicate, read-out: IC50
[10] = PDC-382, crude extract of E. coli TOP10 recombinant strain, mean of triplicate, read-out: IC50
[11] = CMY-42, crude extract of E. coli TOP10 recombinant strain, mean of triplicate, read-out: IC50
[12] = YRC-1, crude extract of E. coli TOP10 recombinant strain, mean of triplicate, read-out: IC50
[13] = ACC-1, crude extract of E. coli TOP10 recombinant strain, mean of triplicate, read-out: IC50
[14] = LAT-1, crude extract of E. coli TOP10 recombinant strain, mean of triplicate, read-out: IC50
[15] = DHA-1, crude extract of E. coli TOP10 recombinant strain, mean of triplicate, read-out: IC50

Chain of MOX-2 (Q9L3G2 entry or part of it): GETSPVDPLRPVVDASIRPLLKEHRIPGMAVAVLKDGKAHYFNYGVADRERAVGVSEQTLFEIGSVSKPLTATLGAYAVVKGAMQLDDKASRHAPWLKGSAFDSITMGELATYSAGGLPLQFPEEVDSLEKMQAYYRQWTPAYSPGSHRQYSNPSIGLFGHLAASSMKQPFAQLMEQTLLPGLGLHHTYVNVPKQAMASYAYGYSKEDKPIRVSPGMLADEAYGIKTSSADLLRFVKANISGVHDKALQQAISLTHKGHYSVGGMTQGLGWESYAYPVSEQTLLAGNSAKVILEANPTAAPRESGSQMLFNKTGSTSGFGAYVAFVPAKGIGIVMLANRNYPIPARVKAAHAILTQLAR
Chain of ACC-1 (Q9XB24 entry or part of it): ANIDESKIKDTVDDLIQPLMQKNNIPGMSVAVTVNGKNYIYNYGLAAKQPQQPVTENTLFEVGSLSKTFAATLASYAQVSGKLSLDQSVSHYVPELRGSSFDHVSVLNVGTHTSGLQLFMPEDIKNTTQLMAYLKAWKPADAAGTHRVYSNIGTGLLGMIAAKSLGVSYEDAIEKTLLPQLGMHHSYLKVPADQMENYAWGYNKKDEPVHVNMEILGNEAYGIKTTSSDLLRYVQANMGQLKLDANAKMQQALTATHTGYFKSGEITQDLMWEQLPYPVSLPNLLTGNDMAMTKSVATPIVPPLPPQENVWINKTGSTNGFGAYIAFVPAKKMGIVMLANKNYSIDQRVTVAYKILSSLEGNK
T4 sequence (P24735 27-397 R79Q/T105A): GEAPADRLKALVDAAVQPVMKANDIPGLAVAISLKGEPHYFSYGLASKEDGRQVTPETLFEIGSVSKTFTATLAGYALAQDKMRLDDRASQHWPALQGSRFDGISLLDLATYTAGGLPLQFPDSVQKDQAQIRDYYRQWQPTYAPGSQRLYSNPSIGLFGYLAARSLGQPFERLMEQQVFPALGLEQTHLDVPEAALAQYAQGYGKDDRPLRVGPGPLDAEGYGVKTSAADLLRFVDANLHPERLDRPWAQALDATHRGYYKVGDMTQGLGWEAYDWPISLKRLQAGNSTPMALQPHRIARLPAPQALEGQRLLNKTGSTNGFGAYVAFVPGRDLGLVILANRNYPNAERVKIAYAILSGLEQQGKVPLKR
T2 sequence (Q48434 21-381 V231S): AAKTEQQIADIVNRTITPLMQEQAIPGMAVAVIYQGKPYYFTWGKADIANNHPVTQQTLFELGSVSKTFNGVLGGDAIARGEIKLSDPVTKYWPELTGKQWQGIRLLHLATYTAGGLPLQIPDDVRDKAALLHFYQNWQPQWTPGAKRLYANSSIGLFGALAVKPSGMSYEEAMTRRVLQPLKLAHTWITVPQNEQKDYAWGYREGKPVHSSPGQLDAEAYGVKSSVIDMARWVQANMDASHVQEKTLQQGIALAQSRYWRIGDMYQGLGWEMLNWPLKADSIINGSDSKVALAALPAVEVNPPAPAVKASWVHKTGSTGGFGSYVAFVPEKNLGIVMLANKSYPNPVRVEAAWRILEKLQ
Chain of PDC-382 (P24735 27-397 T96I): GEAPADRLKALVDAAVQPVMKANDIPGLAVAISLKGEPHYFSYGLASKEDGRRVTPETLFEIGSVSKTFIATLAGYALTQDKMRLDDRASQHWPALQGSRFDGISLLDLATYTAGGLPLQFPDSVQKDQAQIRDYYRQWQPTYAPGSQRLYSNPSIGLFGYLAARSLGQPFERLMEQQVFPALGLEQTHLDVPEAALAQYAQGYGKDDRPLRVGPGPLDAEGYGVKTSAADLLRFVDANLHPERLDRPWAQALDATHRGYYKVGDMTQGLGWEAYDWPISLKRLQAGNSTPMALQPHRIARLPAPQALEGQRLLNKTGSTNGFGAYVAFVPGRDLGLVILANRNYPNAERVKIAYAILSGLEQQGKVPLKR
Chain of LAT-1 (Q48443 entry or part of it): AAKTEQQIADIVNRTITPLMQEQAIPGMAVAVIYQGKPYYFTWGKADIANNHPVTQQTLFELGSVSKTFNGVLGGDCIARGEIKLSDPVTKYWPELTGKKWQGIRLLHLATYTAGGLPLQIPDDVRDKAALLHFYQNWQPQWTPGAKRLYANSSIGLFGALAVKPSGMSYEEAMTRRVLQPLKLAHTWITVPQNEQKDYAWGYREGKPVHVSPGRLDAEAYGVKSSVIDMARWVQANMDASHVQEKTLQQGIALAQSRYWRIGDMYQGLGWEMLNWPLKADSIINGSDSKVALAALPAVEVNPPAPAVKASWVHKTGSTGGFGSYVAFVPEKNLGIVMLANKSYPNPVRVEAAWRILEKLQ
Chain of SRT-1 (P18539 22-376): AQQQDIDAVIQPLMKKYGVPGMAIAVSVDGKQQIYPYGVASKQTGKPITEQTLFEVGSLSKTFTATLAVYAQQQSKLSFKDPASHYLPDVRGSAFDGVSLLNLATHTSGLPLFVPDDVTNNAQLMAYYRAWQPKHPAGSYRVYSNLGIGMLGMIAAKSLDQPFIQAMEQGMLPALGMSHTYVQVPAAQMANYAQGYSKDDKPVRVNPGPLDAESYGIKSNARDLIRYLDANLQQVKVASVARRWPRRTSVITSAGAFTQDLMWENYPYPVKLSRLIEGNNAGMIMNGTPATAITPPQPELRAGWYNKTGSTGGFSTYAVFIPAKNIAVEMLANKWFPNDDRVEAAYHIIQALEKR
Chain of Ear-1 (A0A0H3FRQ3 entry or part of it): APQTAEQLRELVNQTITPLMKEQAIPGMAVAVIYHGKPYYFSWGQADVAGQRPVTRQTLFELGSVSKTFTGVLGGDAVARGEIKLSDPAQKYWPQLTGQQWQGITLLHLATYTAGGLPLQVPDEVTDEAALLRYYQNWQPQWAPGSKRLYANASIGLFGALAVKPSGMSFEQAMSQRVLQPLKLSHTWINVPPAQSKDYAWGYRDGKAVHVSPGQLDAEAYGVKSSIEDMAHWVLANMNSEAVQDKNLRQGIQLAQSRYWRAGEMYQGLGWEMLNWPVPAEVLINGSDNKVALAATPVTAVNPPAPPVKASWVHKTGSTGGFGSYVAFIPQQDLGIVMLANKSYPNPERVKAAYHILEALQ
Chain of ACT-7 (B6V6L3 entry or part of it): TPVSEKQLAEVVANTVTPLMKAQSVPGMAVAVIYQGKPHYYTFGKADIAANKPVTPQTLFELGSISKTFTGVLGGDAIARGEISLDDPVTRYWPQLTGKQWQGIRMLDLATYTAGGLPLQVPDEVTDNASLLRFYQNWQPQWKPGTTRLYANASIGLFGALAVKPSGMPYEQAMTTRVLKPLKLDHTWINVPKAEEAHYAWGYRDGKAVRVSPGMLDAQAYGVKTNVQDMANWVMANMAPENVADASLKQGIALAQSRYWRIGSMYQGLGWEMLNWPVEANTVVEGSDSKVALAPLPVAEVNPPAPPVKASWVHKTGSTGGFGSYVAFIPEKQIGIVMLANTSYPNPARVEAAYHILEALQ
Chain of ACT-17 (P05364 21-381): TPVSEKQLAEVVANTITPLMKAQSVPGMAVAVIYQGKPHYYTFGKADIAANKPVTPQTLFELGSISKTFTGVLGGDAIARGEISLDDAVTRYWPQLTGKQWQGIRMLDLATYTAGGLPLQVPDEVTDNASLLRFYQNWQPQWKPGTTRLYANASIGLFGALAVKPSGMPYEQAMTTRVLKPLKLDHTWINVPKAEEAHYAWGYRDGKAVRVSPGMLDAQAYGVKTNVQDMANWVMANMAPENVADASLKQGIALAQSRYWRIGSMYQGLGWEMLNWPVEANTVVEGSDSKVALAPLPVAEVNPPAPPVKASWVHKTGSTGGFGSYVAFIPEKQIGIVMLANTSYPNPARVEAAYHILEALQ
T3 sequence (P24735 27-397): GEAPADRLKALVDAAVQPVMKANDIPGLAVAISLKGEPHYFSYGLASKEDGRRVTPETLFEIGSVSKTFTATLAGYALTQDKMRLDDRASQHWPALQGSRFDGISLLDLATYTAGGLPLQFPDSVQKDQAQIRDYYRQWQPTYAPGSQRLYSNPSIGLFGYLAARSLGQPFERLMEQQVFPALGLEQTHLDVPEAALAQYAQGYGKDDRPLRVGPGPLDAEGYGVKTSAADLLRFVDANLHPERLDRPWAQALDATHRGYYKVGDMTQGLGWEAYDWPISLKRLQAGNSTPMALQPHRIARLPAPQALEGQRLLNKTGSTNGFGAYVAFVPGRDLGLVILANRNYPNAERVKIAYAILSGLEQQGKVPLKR
Chain of YRC-1 (Q20I87 entry or part of it): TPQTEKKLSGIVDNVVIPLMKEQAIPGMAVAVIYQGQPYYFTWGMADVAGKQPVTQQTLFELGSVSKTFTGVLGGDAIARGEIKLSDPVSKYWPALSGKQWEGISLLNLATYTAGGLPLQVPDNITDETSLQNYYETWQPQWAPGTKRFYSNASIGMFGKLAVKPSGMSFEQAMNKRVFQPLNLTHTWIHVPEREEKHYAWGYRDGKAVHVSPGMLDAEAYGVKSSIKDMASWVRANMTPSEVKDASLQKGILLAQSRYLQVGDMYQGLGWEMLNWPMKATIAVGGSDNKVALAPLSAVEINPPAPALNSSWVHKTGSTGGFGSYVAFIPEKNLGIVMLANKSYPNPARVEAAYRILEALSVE
T1 sequence (Q48434 21-381): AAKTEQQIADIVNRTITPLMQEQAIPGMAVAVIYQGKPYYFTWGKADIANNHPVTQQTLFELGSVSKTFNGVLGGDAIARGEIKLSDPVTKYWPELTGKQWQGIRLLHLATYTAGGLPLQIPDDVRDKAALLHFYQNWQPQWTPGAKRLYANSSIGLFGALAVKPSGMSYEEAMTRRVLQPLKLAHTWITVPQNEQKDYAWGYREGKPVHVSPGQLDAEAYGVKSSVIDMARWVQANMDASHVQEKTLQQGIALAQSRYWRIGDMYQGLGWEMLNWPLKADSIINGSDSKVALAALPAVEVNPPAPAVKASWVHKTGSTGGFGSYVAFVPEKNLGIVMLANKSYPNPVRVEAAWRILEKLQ

Structure (SMILES) | pIC50 (ADC-50; [2]) | pIC50 (CMY-2) | pIC50 (MIR-17) | pIC50 (Ear-1) | pIC50 (SRT-1) | pIC50 (MOX-2) | pIC50 (FOX-5) | pIC50 (ACT-7) | pIC50 (CMY-42) | pIC50 (ACT-17) | pIC50 (YRC-1) | pIC50 (ACC-1) | pIC50 (LAT-1) | pIC50 (DHA-1) | inhibition of ADC-50 (in words) (ADC-50; ADC-50 of A. baumannii) | MIC (E. coli TOP10) | pIC50 (PDC-1) | pIC50 (PDC-5) | pIC50 (PDC-382) | further results
NC(=O)[C@@H]1CC[C@@H]2CN1C(=O)N2OS(=O)(=O)O [Avibactam, avibactam] | 4.21 | 6.21 | 6.00 | 6.06 | 5.17 | 5.25 | 6.00 | 6.10 | 6.19 | 6.05 | 5.68 | 6.60 | 6.40 | 6.96 |  |  |  |  |  | pIC50 (ADC-50; ADC-50, crude extract of E. coli TOP10 recombinant strain, mean of triplicate, listed as AVI): < 4.89
Cn1cc[n+](C[C@@]2(C)[C@H](C(=O)[O-])N3C(=O)C[C@H]3S2(=O)=O)n1 [Enmetazobactam, enmetazobactam] |  |  | < 4.00 |  |  |  |  |  |  |  |  |  |  |  | not significantly inhibited |  |  |  |  | pIC50 (ADC-50; [3]): < 4.00; pIC50 (CMY-2; CMY-2, crude extract of E. coli TOP10 recombinant strain, mean of triplicate, read-out: IC50): 4.40; pIC50 (Ear-1; [4]): 4.04; pIC50 (PDC-1; [5]): < 4.00; pIC50 (SRT-1; read-out: IC50): < 4.00; pIC50 (PDC-5; [6]): < 4.00; pIC50 (MOX-2; [7]): < 4.00; pIC50 (FOX-5; [8]): < 4.00; pIC50 (ACT-7; [9]): 4.37; pIC50 (PDC-382; [10]): < 4.00; pIC50 (CMY-42; [11]): 4.19; pIC50 (ACT-17; read-out: IC50): 4.21; pIC50 (YRC-1; [12]): < 4.00; pIC50 (ACC-1; [13]): 4.41; pIC50 (LAT-1; [14]): 4.01; pIC50 (DHA-1; [15]): 4.59
O=C(NNC(=O)[C@@H]1CC[C@@H]2CN1C(=O)N2OS(=O)(=O)O)[C@@H]1CCCNC1 [Zidebactam, zidebactam] | 5.26 | 6.92 | 6.96 | 6.92 | 4.43 | 5.57 | 6.00 | 6.92 | 6.77 | 6.85 | 7.05 | 7.05 | 8.30 | 7.22 |  | 0.125 µg/mL |  |  |  | pIC50 (ADC-50; ADC-50, crude extract of E. coli TOP10 recombinant strain, mean of triplicate, listed as ZID): 5.30
NCCN[C@H]1CC[C@H](CC(=O)N[C@H]2Cc3cccc(C(=O)O)c3OB2O)CC1 [Taniborbactam, taniborbactam] |  |  | 7.52 |  |  |  |  |  |  |  |  |  |  |  | not significantly inhibited |  |  |  |  | pIC50 (ADC-50; [3]): 4.59; pIC50 (Ear-1; [4]): 6.96; pIC50 (PDC-1; [5]): 5.96; pIC50 (SRT-1; read-out: IC50): 7.22; pIC50 (PDC-5; [6]): 6.29; pIC50 (MOX-2; [7]): 6.49; pIC50 (FOX-5; [8]): 6.80; pIC50 (ACT-7; [9]): 6.72; pIC50 (PDC-382; [10]): 5.30; pIC50 (CMY-42; [11]): 6.17; pIC50 (ACT-17; read-out: IC50): 6.68; pIC50 (YRC-1; [12]): 7.00; pIC50 (ACC-1; [13]): 6.74; pIC50 (LAT-1; [14]): 6.64; sensitivity of ADC-50 β-lactamase to inhibitor (in words) [1]: resistant; pIC50 (DHA-1; [15]): 6.92
O=C(NC1CCNCC1)[C@@H]1CC[C@@H]2CN1C(=O)N2OS(=O)(=O)O [Relebactam, relebactam] | 4.89 | 6.23 | 5.89 | 6.05 | 4.43 | 5.62 | 5.70 | 6.15 | 5.96 | 6.48 | 5.72 | 6.24 | 6.64 | 6.07 |  |  |  |  |  | pIC50 (ADC-50; ADC-50, crude extract of E. coli TOP10 recombinant strain, mean of triplicate, listed as REL): < 4.89
CC1=C[C@@H]2CN(C(=O)N2OS(=O)(=O)O)[C@@H]1C(N)=O [Durlobactam, durlobactam] | 6.77 | 8.40 | 8.30 | 8.22 | 7.66 | 7.26 | 7.66 | 8.40 | 7.96 | 8.52 | 8.30 | 8.30 | 8.30 | 8.40 |  | 0.125 µg/mL | 8.05 | 7.89 | 7.00 | pIC50 (ADC-50; read-out: IC50 value, ADC-50 of A. baumannii): 9.77
O=C(O)C[C@@H]1CC[C@H](NC(=O)Cc2cccs2)B(O)O1 [Vaborbactam, vaborbactam] | < 4.00 | 5.28 | 5.96 | 6.08 | 5.16 | 5.72 | 4.77 | 5.44 | 4.89 | 5.59 | 5.70 | 5.44 | 5.92 | 5.51 | not significantly inhibited |  | 4.96 | 4.43 | 4.27 | 
O=C(O)[C@H]1/C(=C/CO)O[C@@H]2CC(=O)N21 [Clavulanic acid, clavulanic acid] | < 4.00 | < 4.00 | < 4.00 | < 4.00 | < 4.00 | < 4.00 | < 4.00 | < 4.00 | < 4.00 |  | < 4.00 | < 4.00 | < 4.00 | < 4.00 |  |  | < 4.00 | < 4.00 | < 4.00 | 
C[C@]1(Cn2ccnn2)[C@H](C(=O)O)N2C(=O)C[C@H]2S1(=O)=O [Tazobactam, tazobactam] | < 4.00 | 4.70 | 4.08 | 4.14 | 4.32 | < 4.00 | 4.64 | 4.64 | 4.62 |  | < 4.00 | 5.68 | 5.14 | 5.89 |  |  |  |  |  | 
NCCONC(=O)[C@@H]1CC[C@@H]2CN1C(=O)N2OS(=O)(=O)O [Nacubactam, nacubactam] | < 4.00 | 6.38 | 6.22 | 6.55 | 4.15 | 5.39 | 5.28 | 6.43 | 5.77 | 6.54 | 6.89 | 6.35 | 6.54 | 6.30 | not significantly inhibited | 4 µg/mL | 5.29 | 5.92 | 4.47 | 
